Assay results taken from patent US10375956B2, “Herbicidally active 2-(substituted-phenyl)-cyclopentane-1,3-dione compounds and derivatives thereof” (Syngenta Limited, priority 2013, dated 2019).

What was measured:
Type in all cases: in vivo
[1] = tested on: Amaranthus retroflexus (AMARE); test: Test 1 glasshouse assay, post-emergence herbicidal activity; settings: 312 h, post-emergence (Example 1B Table 1), after 13 days, read-out: Percentage phytotoxicity AMARE
Summary of the method: (§1)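 Plants sprayed post-emergence after 8 days' growth with active ingredient in acetone/water (50:50) plus 0.5% Tween 20; glasshouse at 24/16° C day/night, 14 h light, 65% humidity. Visual percentage phytotoxicity scored 13 days later (100% = total damage, 0% = none).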

Setaria faberi (SETFA) = test: as above; settings: 312 h, post-emergence (Example 1B Table 1), after 13 days, read-out: Percentage phytotoxicity SETFA
Summary of the method: as §1

[2] = tested on: Zea mays (ZEAMX, corn/maize); test: as above; settings: 312 h, post-emergence (Example 1B Table 1), after 13 days, read-out: Percentage phytotoxicity ZEAMX
Summary of the method: as §1

[3] = tested on: Beta vulgaris (BEAVA, sugarbeet); test: Test 2 glasshouse assay (IF50 formulation, X-77), post-emergence herbicidal activity; settings: 360 h, 15 DAA, visual score, read-out: Post-emergence herbicidal activity (percentage phytotoxicity) BEAVA; for plant injury at 30 g/ha: application rate 30 g/ha; for plant injury at 125 g/ha: application rate 125 g/ha; for plant injury at 250 g/ha: application rate 250 g/ha
Summary of the method: (§2)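 Plants grown ~12 days (range 10-13) in glasshouse (cool species 20/16° C., warm 24/18° C. day/night; 16 h light; 65% humidity), then sprayed post-emergence with IF50 formulation in aqueous 0.2% v/v X-77. Visual percentage phytotoxicity scored 15 days after application (100% = total damage, 0% = none).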

[4] = tested on: Brassica napus (BRSNN, rape); test: as above; settings: 360 h, 15 DAA, visual score, read-out: Post-emergence herbicidal activity (percentage phytotoxicity) BRSNN; for plant injury at 30 g/ha: application rate 30 g/ha; for plant injury at 125 g/ha: application rate 125 g/ha; for plant injury at 250 g/ha: application rate 250 g/ha
Summary of the method: as §2

[5] = tested on: Glycine max (GLXMA, soybean); test: as above; settings: 360 h, 15 DAA, visual score, read-out: Post-emergence herbicidal activity (percentage phytotoxicity) GLXMA; for plant injury at 30 g/ha: application rate 30 g/ha; for plant injury at 125 g/ha: application rate 125 g/ha; for plant injury at 250 g/ha: application rate 250 g/ha
Summary of the method: as §2

[6] = tested on: Triticum aestivum (TRZAW, winter wheat); test: as above; settings: 360 h, 15 DAA, visual score, read-out: Post-emergence herbicidal activity (percentage phytotoxicity) TRZAW; for plant injury at 30 g/ha: application rate 30 g/ha; for plant injury at 125 g/ha: application rate 125 g/ha; for plant injury at 250 g/ha: application rate 250 g/ha
Summary of the method: as §2

[7] = tested on: Alopecurus myosuroides (ALOMY); test: as above; settings: 360 h, 15 DAA, visual score, read-out: Post-emergence herbicidal activity (percentage phytotoxicity) ALOMY; for pest or weed control at 30 g/ha: application rate 30 g/ha; for pest or weed control at 125 g/ha: application rate 125 g/ha; for pest or weed control at 250 g/ha: application rate 250 g/ha
Summary of the method: (§3)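 Plants in soil pots were sprayed 1 day (pre-emergence) or ~12 days (post-emergence) after sowing with IF50 formulation diluted in 0.2% v/v X-77. Cool species were grown at 20/16 °C day/night, 16 h light, 65% humidity. Visual % phytotoxicity was scored at 20DAA (pre) or 15DAA (post).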

Avena fatua (AVEFA) = test: as above; settings: 360 h, 15 DAA, visual score, read-out: Post-emergence herbicidal activity (percentage phytotoxicity) AVEFA; for pest or weed control at 30 g/ha: application rate 30 g/ha; for pest or weed control at 125 g/ha: application rate 125 g/ha; for pest or weed control at 250 g/ha: application rate 250 g/ha
Summary of the method: as §3

Lolium perenne (LOLPE) = test: as above; settings: 360 h, 15 DAA, visual score, read-out: Post-emergence herbicidal activity (percentage phytotoxicity) LOLPE; for pest or weed control at 30 g/ha: application rate 30 g/ha; for pest or weed control at 125 g/ha: application rate 125 g/ha; for pest or weed control at 250 g/ha: application rate 250 g/ha
Summary of the method: as §3

[8] = tested on: Echinochloa crus-galli (ECHCG); test: as above; settings: 360 h, 15 DAA, visual score, read-out: Post-emergence herbicidal activity (percentage phytotoxicity) ECHCG; for pest or weed control at 30 g/ha: application rate 30 g/ha; for pest or weed control at 125 g/ha: application rate 125 g/ha; for pest or weed control at 250 g/ha: application rate 250 g/ha
Summary of the method: (§4)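 Sow in soil → 1 d (pre) or ~12 d (post) at 24/18 °C, 16 h light, 65% RH → spray IF50 (50 g/L stock) in 0.2% v/v X-77, concentration set by application rate → water twice daily → visual % phytotoxicity 20DAA (pre) or 15DAA (post).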

[9] = tested on: Panicum miliaceum (PANMI); test: as above; settings: 360 h, 15 DAA, visual score, read-out: Post-emergence herbicidal activity (percentage phytotoxicity) PANMI; for pest or weed control at 30 g/ha: application rate 30 g/ha; for pest or weed control at 125 g/ha: application rate 125 g/ha; for pest or weed control at 250 g/ha: application rate 250 g/ha
Summary of the method: as §4

`C#CCC1CC(=O)C(c2c(Cl)cc(-c3ccc(F)cc3F)cc2OC)C1=O` (stereo not drawn) [Compound A12] was tested, and the pest or weed control at 30 g/ha [1] was 30%, the pest or weed control at 250 g/ha [1] was 80% and the pest or weed control at 30 g/ha (Setaria faberi (SETFA)) was 100%. The pest or weed control at 250 g/ha (Setaria faberi (SETFA)) was 100%, the pest or weed control at 30 g/ha [2] was 100% and the pest or weed control at 250 g/ha [2] was 100%. It also gave a plant injury at 30 g/ha [3] of 40%, a plant injury at 125 g/ha [3] of 40% and a plant injury at 30 g/ha [4] of 50%. It also gave a plant injury at 125 g/ha [4] of 60%, a plant injury at 30 g/ha [5] of 0% and a plant injury at 125 g/ha [5] of 0%. The plant injury at 30 g/ha [6] was 40%, the plant injury at 125 g/ha [6] was 80% and the pest or weed control at 30 g/ha [7] was 60%. It also gave a pest or weed control at 125 g/ha [7] of 80%, a pest or weed control at 30 g/ha (Avena fatua (AVEFA)) of 10% and a pest or weed control at 125 g/ha (Avena fatua (AVEFA)) of 80%. It also gave a pest or weed control at 30 g/ha (Lolium perenne (LOLPE)) of 30%, a pest or weed control at 125 g/ha (Lolium perenne (LOLPE)) of 90% and a pest or weed control at 30 g/ha [8] of 70%. For the same compound, the pest or weed control at 125 g/ha [8] was 100%, the pest or weed control at 30 g/ha [9] was 70% and the pest or weed control at 125 g/ha [9] was 100%.
In the case of `C#CCC1CC(=O)C(c2c(Cl)cc(-c3ccc(F)c(F)c3)cc2OC)C1=O` (stereo not drawn) [Compound A13], the pest or weed control at 30 g/ha [1] is reported as 60%, the pest or weed control at 250 g/ha [1] is reported as 90% and the pest or weed control at 30 g/ha (Setaria faberi (SETFA)) is reported as 100%. The pest or weed control at 250 g/ha (Setaria faberi (SETFA)) was 100%, the pest or weed control at 30 g/ha [2] was 100% and the pest or weed control at 250 g/ha [2] was 100%. For the same compound, the plant injury at 30 g/ha [3] was 60%, the plant injury at 125 g/ha [3] was 70% and the plant injury at 30 g/ha [4] was 70%. It also gave a plant injury at 125 g/ha [4] of 80%, a plant injury at 30 g/ha [5] of 20% and a plant injury at 125 g/ha [5] of 30%. The plant injury at 30 g/ha [6] was 40%, the plant injury at 125 g/ha [6] was 80% and the pest or weed control at 30 g/ha [7] was 30%. For the same compound, the pest or weed control at 125 g/ha [7] was 100%, the pest or weed control at 30 g/ha (Avena fatua (AVEFA)) was 30% and the pest or weed control at 125 g/ha (Avena fatua (AVEFA)) was 80%. The pest or weed control at 30 g/ha (Lolium perenne (LOLPE)) was 10%, the pest or weed control at 125 g/ha (Lolium perenne (LOLPE)) was 80% and the pest or weed control at 30 g/ha [8] was 100%. For the same compound, the pest or weed control at 125 g/ha [8] was 100%, the pest or weed control at 30 g/ha [9] was 100% and the pest or weed control at 125 g/ha [9] was 100%.
Compound `C#CCC1CC(=O)C(c2c(F)cc(-c3ccc(Cl)cc3)cc2OC)C1=O` (stereo not drawn) [Compound A14] has a pest or weed control at 62.5 g/ha ([1]; 62.5 g/ha) of 50%, a pest or weed control at 250 g/ha [1] of 60% and a pest or weed control at 62.5 g/ha (Setaria faberi (SETFA); 62.5 g/ha) of 90%. It also gave a pest or weed control at 250 g/ha (Setaria faberi (SETFA)) of 100%, a pest or weed control at 62.5 g/ha ([2]; 62.5 g/ha) of 100% and a pest or weed control at 250 g/ha [2] of 100%. It also gave a plant injury at 125 g/ha [3] of 10%, a plant injury at 125 g/ha [4] of 0% and a plant injury at 125 g/ha [5] of 0%. The plant injury at 125 g/ha [6] was 40%, the pest or weed control at 125 g/ha [7] was 60% and the pest or weed control at 125 g/ha (Avena fatua (AVEFA)) was 40%. For the same compound, the pest or weed control at 125 g/ha (Lolium perenne (LOLPE)) was 20%, the pest or weed control at 125 g/ha [8] was 100% and the pest or weed control at 125 g/ha [9] was 60%.
For `C#CCC1CC(=O)C(c2cc(-c3ccc(Cl)cc3Cl)ccc2C)C1=O` (stereo not drawn) [Compound A15], the pest or weed control at 250 g/ha [1] was 40%, the pest or weed control at 250 g/ha (Setaria faberi (SETFA)) was 70% and the pest or weed control at 250 g/ha [2] was 80%. It also gave a plant injury at 250 g/ha [3] of 40%, a plant injury at 250 g/ha [4] of 60% and a plant injury at 250 g/ha [5] of 10%. For the same compound, the plant injury at 250 g/ha [6] was 10%, the pest or weed control at 250 g/ha [7] was 40% and the pest or weed control at 250 g/ha (Avena fatua (AVEFA)) was 10%. It also gave a pest or weed control at 250 g/ha (Lolium perenne (LOLPE)) of 20%, a pest or weed control at 250 g/ha [8] of 70% and a pest or weed control at 250 g/ha [9] of 70%.
With `C#CCC1CC(=O)C(c2cc(-c3ncc(Cl)cc3F)ccc2C)C1=O` (stereo not drawn) [Compound A18] the pest or weed control at 30 g/ha [1] was 0%, the pest or weed control at 250 g/ha [1] was 60% and the pest or weed control at 30 g/ha (Setaria faberi (SETFA)) was 60%. For the same compound, the pest or weed control at 250 g/ha (Setaria faberi (SETFA)) was 80%, the pest or weed control at 30 g/ha [2] was 60% and the pest or weed control at 250 g/ha [2] was 80%. It also gave a plant injury at 250 g/ha [3] of 50%, a plant injury at 250 g/ha [4] of 20% and a plant injury at 250 g/ha [5] of 40%. It also gave a plant injury at 250 g/ha [6] of 30%, a pest or weed control at 250 g/ha [7] of 30% and a pest or weed control at 250 g/ha (Avena fatua (AVEFA)) of 30%. The pest or weed control at 250 g/ha (Lolium perenne (LOLPE)) was 10%, the pest or weed control at 250 g/ha [8] was 90% and the pest or weed control at 250 g/ha [9] was 60%.
